The values below come from US6677324B1, “Combination preparation of estrogen and anti-estrogen” (Schering Aktiengesellschaft, priority 1998, dated 2004).

One test relates to central nervous system. To be noted: Biegon et al. 1996; cited from earlier work.
A further test deals with uterus and bone. Put plainly: Selective bone action test: uterus weight, uterine epithelium depth and trabecular bone density of proximal tibia in ovarectomized rats. The format is in vivo, rat. The conditions noted are these: combination with 17β-oestradiol, ovarectomized rats 3 months old, treated 28 days, FIGS. 1-3. The method, then: In the FIG. 1 means: control (only solvent), 2: 0.3 μg of oestradiol, 3: 75 μg of test substance, 4: 75 μg of test substance+0.03 μg of oestradiol, 5: 75 μg of test substance+0.1 μg of oestradiol, 6: 75 μg of test substance+0.3 μg of oestradiol, 7: 75 μg of test substance+1.0 μg of oestradiol, 8: 75 μg of test substance+3.0 μg of oestradiol.
In the FIG. 1 means: control (only solvent), 2: 0.3 μg of oestradibl, 3: 75 μg of test substance, 4: 75 μg of test substance+0.03 μg of oestradiol, 5: 75 μg of test substance+0.1 μg of oestradiol, 6: 75 μg of test substance+0.3 μg of oestradiol, 7: 75 μg of test substance+1.0 μg of oestradiol, 8: 75 μg of test substance+3.0 μg of oestradiol.
The doses of the oestrogen and antioestrogen to be used for the selective bone action test must be established to begin with in preliminary investigations.
The dose of the antioestrogen to be used is determined by an antiuterus growth test in the oestradiol-substituted, ovarectomized rat. […]
After 28 days, the animals are killed and the uterus weight, as well as the trabecular bone density in the proximal tibia, is measured. The uterus weight is determined by weighing the uterus moist weight immediately after organ removal. The trabecular bone density is determined ex vivo by bone density measurements in the secondary spongiosa of the proximal tibia using a QCT (Stratec XCT 960A).

As to `CC/C(=C(\c1ccccc1)c1ccc(OCCN(C)C)cc1)c1ccccc1` [tamoxifen], the “action in the central nervous system” value in the test with central nervous system is on record as “acts there as an oestroaenic antagonist”.
For `CN(CCCCC[C@@H]1Cc2cc(O)ccc2[C@@H]2[C@@H]1[C@@H]1CC[C@H](O)[C@@]1(C)C[C@@H]2F)CCCSCCCC(F)(F)C(F)(F)F` [Example 1, 11β-fluoro-7α-{5-[N-methyl-N-3-(4,4,5,5,5-pentafluoropentylthio)propylamino]pentyl}-oestra-1,3,5(10)-triene-3,17β-diol], in the test on uterus and bone, the “selective action of the combination on bone versus uterus” value is listed as “selectively active”.
